Data as given in ChEMBL document CHEMBL4602719, “Discovery of Potent, Selective, and Orally Bioavailable Inhibitors of USP7 with In Vivo Antitumor Activity” (J Med Chem, 2020).

Biological target: T1, Ubiquitin carboxyl-terminal hydrolase 7 (Homo sapiens, UniProt Q93009)
Assay: Inhibition of recombinant full length USP7 (unknown origin) using ubiquintin-rhodamine as substrate preincubated for 30 mins followed by substrate addition measured after 1 hr by fluorescence-based Envision plate reader assay
Details: not given

T1 sequence (Q93009 whole entry): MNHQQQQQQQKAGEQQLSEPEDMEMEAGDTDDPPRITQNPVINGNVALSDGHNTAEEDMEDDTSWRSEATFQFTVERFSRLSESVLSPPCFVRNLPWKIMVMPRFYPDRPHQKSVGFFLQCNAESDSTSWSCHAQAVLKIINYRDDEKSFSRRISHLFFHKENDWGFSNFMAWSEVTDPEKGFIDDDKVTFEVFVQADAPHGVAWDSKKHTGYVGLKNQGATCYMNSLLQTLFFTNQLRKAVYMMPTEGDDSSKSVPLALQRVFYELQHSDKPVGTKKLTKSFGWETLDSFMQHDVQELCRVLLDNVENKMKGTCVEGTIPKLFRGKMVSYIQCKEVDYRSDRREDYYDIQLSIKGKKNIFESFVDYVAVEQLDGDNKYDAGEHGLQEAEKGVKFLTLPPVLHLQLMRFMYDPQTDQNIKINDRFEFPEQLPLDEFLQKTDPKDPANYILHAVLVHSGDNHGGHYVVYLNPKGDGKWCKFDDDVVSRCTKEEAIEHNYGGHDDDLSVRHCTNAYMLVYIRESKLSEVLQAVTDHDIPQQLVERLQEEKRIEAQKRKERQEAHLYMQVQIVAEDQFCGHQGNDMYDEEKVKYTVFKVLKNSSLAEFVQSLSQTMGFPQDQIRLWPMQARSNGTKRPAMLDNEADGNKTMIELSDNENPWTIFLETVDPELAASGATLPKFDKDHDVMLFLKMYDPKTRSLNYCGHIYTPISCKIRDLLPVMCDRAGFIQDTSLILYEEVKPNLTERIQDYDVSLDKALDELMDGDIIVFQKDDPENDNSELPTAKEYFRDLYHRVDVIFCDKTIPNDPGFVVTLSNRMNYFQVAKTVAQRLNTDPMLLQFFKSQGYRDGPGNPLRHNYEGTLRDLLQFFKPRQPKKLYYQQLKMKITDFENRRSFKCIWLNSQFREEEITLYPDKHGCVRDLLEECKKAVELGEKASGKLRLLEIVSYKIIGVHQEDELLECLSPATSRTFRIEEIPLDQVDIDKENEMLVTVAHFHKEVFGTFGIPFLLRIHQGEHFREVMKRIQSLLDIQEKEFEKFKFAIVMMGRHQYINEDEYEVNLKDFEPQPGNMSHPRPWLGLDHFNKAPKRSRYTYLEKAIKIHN

| IC50 | SMILES |
| --- | --- |
| 2.4 nM | Cc1cc(Cl)cc(-c2ccnc3cc(CN4C(=O)C5C(C4=O)C5(C)C)sc23)c1OC1CCCNC1 (centres undefined) |
| 0.26 nM | Cc1cc(Cl)cc(-c2ccnc3cc(Cn4c(=O)ccn(CC(F)(F)F)c4=O)sc23)c1O[C@@H]1CCNC[C@@H]1C |
| 25 nM | CC(=O)NCc1cc2nccc(-c3cc(Cl)cc4c3O[C@@H](C(=O)N3CCNCC3)C4)c2s1 |
| 130 nM | Cc1cc2nccc(-c3cc(Cl)cc4c3O[C@@H](C(=O)N3CCNCC3)C4)c2s1 |
| 0.39 nM | Cc1cc(Cl)cc(-c2ccnc3cc(CN4C(=O)C5CC5C4=O)sc23)c1C[C@@H]1CNC[C@@H](C)O1 (mixture of isomers) |
| 13 nM | O=C1CCC(=O)N1Cc1cc2nccc(-c3cc(Cl)cc4c3O[C@@H](c3ocnc3CN3CCC3)C4)c2s1 |
| 0.78 nM | Cc1cc(Cl)cc(-c2ccnc3cc(CN4C(=O)C5C(C4=O)C5(C)C)sc23)c1NC1CCCNC1 (centres undefined) |
| 73 nM | O=C([C@H]1Cc2cc(Cl)cc(-c3ccnc4cc(C5(O)COC5)sc34)c2O1)N1CCNCC1 |
| 930 nM | O=C(C1Cc2cc(Cl)cc(-c3ccnc4[nH]ccc34)c2O1)N1CCNCC1 (racemic) |
| 27 nM | O=C([C@H]1Cc2cc(Cl)cc(-c3ccnc4cc(Cn5cnccc5=O)sc34)c2O1)N1CCNCC1 |
| 3.4 nM | Cc1cc(Cl)cc(-c2ccnc3cc(CN4C(=O)CCC4=O)sc23)c1O[C@H]1C[C@H](N)C1 |
| 0.18 nM | O=C([C@H]1Cc2cc(Cl)cc(-c3ccnc4cc(CN5C(=O)CCC5=O)sc34)c2O1)N1CCNCC1 |
| 1.3 nM | Cc1cc(Cl)cc(-c2ccnc3cc(CN4C(=O)C5C(C4=O)C5(C)C)sc23)c1CC1CCCNC1 (centres undefined) |
| 26 nM | O=C1CCCN1Cc1cc2nccc(-c3cc(Cl)cc4c3O[C@@H](C(=O)N3CCNCC3)C4)c2s1 |
| 43 nM | O=C([C@H]1Cc2cc(Cl)cc(-c3ccnc4cc(CO)sc34)c2O1)N1CCNCC1 |
| 1.1 nM | Cn1nc2c(c1[C@H]1Cc3cc(Cl)cc(-c4ccnc5cc(CN6C(=O)CCC6=O)sc45)c3O1)CNCC2 |

Test system: MM1.S
Assay: Cytotoxicity against human MM1S cells expressing wild type p53 assessed as reduction in cell viability measured after 5 days by CellTiter-Glo assay
Type: functional
Details: 120 h

| SMILES | CC50 |
| --- | --- |
| Cc1cc(Cl)cc(-c2ccnc3cc(CN4C(=O)C5CC5C4=O)sc23)c1C[C@@H]1CNC[C@@H](C)O1 (mixture of isomers) | 120 nM |

Test system: not listed separately
Assay: AUC in Sprague-Dawley rat at 2 mg/kg, po
Type: ADME, organism-based
Details: in vivo

| AUC | SMILES |
| --- | --- |
| 52 ng·h/mL | Cc1cc(Cl)cc(-c2ccnc3cc(Cn4c(=O)ccn(CC(F)(F)F)c4=O)sc23)c1O[C@@H]1CCNC[C@@H]1C |

Biological target: T1, Ubiquitin carboxyl-terminal hydrolase 7
Assay: Inhibition of USP7 in human RKO cells transfected with p53 luciferase reporter vector assessed as increase in p53-dependent luciferase activity measured after 18 hrs by BrightGlo luciferase assay
Type: cell-based
Details: not given

| EC50 | SMILES |
| --- | --- |
| 250 nM | Cc1cc(Cl)cc(-c2ccnc3cc(CN4C(=O)C5C(C4=O)C5(C)C)sc23)c1OC1CCCNC1 (centres undefined) |
| 42 nM | Cc1cc(Cl)cc(-c2ccnc3cc(Cn4c(=O)ccn(CC(F)(F)F)c4=O)sc23)c1O[C@@H]1CCNC[C@@H]1C |
| 60 nM | Cc1cc(Cl)cc(-c2ccnc3cc(CN4C(=O)C5CC5C4=O)sc23)c1C[C@@H]1CNC[C@@H](C)O1 (mixture of isomers) |
| 33 nM | Cc1cc(Cl)cc(-c2ccnc3cc(CN4C(=O)C5C(C4=O)C5(C)C)sc23)c1NC1CCCNC1 (centres undefined) |
| 150 nM | Cc1cc(Cl)cc(-c2ccnc3cc(CN4C(=O)CCC4=O)sc23)c1O[C@H]1C[C@H](N)C1 |
| 130 nM | Cc1cc(Cl)cc(-c2ccnc3cc(CN4C(=O)C5C(C4=O)C5(C)C)sc23)c1CC1CCCNC1 (centres undefined) |

Biological target: T2, Ubiquitin carboxyl-terminal hydrolase 1 (Homo sapiens, UniProt O94782)
T2 sequence (O94782 whole entry): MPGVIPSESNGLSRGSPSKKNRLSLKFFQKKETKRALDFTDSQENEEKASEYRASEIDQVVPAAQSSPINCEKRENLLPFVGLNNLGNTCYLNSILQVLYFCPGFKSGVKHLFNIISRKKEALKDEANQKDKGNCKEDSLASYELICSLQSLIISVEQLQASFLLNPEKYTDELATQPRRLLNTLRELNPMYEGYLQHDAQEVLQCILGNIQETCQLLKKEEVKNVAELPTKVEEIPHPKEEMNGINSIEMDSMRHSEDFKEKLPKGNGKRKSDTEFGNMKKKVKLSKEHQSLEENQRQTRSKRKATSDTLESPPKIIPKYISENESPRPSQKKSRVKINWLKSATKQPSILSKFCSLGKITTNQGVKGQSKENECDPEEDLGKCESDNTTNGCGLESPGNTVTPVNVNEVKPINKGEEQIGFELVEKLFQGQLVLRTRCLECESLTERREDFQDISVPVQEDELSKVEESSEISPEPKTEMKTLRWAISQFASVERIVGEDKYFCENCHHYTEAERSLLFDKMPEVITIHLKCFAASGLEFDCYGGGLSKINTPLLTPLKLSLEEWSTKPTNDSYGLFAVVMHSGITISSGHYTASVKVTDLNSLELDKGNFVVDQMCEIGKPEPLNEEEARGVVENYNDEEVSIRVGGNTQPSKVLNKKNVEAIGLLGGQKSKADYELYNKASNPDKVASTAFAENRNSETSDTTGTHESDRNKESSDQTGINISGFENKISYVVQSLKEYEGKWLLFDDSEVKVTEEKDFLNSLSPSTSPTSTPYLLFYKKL
Assay: Inhibition of His6-tagged human USP1 expressed in insect Sf21 cells coexpressing untagged UAF1 assessed as cleavage of Ubiquitin-Rhodamine110-glycine to Ubiquitin and Rhodamine110-glycine using Ubiquitin-Rhodamine110-glycine as substrate by fluorescence based analysis
Details: not given

| IC50 | SMILES |
| --- | --- |
| > 80000 nM | Cc1cc2nccc(-c3cc(Cl)cc4c3O[C@@H](C(=O)N3CCNCC3)C4)c2s1 |
| > 80000 nM | O=C(C1Cc2cc(Cl)cc(-c3ccnc4[nH]ccc34)c2O1)N1CCNCC1 (racemic) |
| > 40000 nM | O=C([C@H]1Cc2cc(Cl)cc(-c3ccnc4cc(CO)sc34)c2O1)N1CCNCC1 |

Test system: not listed separately
Assay: Stability of compound in rat hepatocytes assessed as parent compound remaining incubated for 60 mins
Type: ADME, cell-based, Hepatocyte
Details: read-out: Stability

| remaining at 1 h | SMILES |
| --- | --- |
| 2% | O=C1CCC(=O)N1Cc1cc2nccc(-c3cc(Cl)cc4c3O[C@@H](c3ocnc3CN3CCC3)C4)c2s1 |
| 14% | O=C([C@H]1Cc2cc(Cl)cc(-c3ccnc4cc(CN5C(=O)CCC5=O)sc34)c2O1)N1CCNCC1 |
| 42% | Cn1nc2c(c1[C@H]1Cc3cc(Cl)cc(-c4ccnc5cc(CN6C(=O)CCC6=O)sc45)c3O1)CNCC2 |

Biological target: T3, Ubiquitin carboxyl-terminal hydrolase 47 (Homo sapiens, UniProt Q96K76)
T3 sequence (Q96K76 whole entry): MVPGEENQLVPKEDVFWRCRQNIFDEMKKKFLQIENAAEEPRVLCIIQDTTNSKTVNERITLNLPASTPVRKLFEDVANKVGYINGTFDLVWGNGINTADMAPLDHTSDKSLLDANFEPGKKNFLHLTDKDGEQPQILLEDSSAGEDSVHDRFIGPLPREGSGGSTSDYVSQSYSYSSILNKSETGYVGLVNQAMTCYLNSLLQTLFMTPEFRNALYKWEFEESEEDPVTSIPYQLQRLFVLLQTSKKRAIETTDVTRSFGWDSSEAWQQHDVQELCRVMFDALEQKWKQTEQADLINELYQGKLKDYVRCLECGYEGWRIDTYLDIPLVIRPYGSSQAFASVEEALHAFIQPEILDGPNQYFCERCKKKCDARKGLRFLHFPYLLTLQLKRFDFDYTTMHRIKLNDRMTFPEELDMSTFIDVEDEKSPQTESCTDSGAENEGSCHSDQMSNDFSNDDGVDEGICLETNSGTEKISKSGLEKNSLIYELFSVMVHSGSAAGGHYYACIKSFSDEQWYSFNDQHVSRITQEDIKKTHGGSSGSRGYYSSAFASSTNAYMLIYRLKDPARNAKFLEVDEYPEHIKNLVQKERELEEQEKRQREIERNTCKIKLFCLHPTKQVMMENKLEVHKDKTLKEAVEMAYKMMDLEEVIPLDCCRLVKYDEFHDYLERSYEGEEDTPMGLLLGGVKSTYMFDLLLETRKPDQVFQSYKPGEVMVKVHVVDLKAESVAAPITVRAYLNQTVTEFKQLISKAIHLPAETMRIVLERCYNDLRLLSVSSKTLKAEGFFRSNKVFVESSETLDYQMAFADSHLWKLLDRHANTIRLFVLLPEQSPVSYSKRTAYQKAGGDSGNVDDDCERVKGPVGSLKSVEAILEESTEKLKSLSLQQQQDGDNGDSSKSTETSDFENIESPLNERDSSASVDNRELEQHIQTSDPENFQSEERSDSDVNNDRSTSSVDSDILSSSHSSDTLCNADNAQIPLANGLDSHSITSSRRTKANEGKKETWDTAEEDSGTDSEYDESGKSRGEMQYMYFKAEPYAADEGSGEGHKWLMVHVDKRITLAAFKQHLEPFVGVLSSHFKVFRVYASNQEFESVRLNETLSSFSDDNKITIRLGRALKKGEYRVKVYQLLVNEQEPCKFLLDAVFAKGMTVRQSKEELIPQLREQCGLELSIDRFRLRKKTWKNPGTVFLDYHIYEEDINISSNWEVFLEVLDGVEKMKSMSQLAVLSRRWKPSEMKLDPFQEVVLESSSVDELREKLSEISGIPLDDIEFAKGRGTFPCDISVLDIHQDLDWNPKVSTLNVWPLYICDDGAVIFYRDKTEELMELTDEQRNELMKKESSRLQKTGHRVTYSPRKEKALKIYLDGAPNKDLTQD
Assay: Inhibition of USP47 (unknown origin) by biochemical assay
Details: not given

| IC50 | SMILES |
| --- | --- |
| > 80000 nM | CC(=O)NCc1cc2nccc(-c3cc(Cl)cc4c3O[C@@H](C(=O)N3CCNCC3)C4)c2s1 |
| > 80000 nM | Cc1cc2nccc(-c3cc(Cl)cc4c3O[C@@H](C(=O)N3CCNCC3)C4)c2s1 |
| > 40000 nM | O=C([C@H]1Cc2cc(Cl)cc(-c3ccnc4cc(C5(O)COC5)sc34)c2O1)N1CCNCC1 |
| > 80000 nM | O=C(C1Cc2cc(Cl)cc(-c3ccnc4[nH]ccc34)c2O1)N1CCNCC1 (racemic) |
| > 5000 nM | O=C([C@H]1Cc2cc(Cl)cc(-c3ccnc4cc(Cn5cnccc5=O)sc34)c2O1)N1CCNCC1 |
| > 2000 nM | O=C([C@H]1Cc2cc(Cl)cc(-c3ccnc4cc(CN5C(=O)CCC5=O)sc34)c2O1)N1CCNCC1 |
| > 20000 nM | O=C1CCCN1Cc1cc2nccc(-c3cc(Cl)cc4c3O[C@@H](C(=O)N3CCNCC3)C4)c2s1 |
| > 40000 nM | O=C([C@H]1Cc2cc(Cl)cc(-c3ccnc4cc(CO)sc34)c2O1)N1CCNCC1 |

Test system: not listed separately
Assay: Stability of compound in human hepatocytes assessed as parent compound remaining incubated for 60 mins
Type: ADME, cell-based, Hepatocyte
Details: read-out: Stability

| remaining at 1 h | SMILES |
| --- | --- |
| 14% | O=C1CCC(=O)N1Cc1cc2nccc(-c3cc(Cl)cc4c3O[C@@H](c3ocnc3CN3CCC3)C4)c2s1 |
| 37% | O=C([C@H]1Cc2cc(Cl)cc(-c3ccnc4cc(CN5C(=O)CCC5=O)sc34)c2O1)N1CCNCC1 |
| 63% | Cn1nc2c(c1[C@H]1Cc3cc(Cl)cc(-c4ccnc5cc(CN6C(=O)CCC6=O)sc45)c3O1)CNCC2 |

Test system: not listed separately
Assay: Clearance in Sprague-Dawley rat at 0.5 mg/kg, iv
Type: ADME, organism-based
Details: in vivo

| clearance | SMILES |
| --- | --- |
| 16.7 mL/min/kg | Cc1cc(Cl)cc(-c2ccnc3cc(Cn4c(=O)ccn(CC(F)(F)F)c4=O)sc23)c1O[C@@H]1CCNC[C@@H]1C |
| 192 mL/min/kg | O=C([C@H]1Cc2cc(Cl)cc(-c3ccnc4cc(CN5C(=O)CCC5=O)sc34)c2O1)N1CCNCC1 |
| 78.3 mL/min/kg | Cn1nc2c(c1[C@H]1Cc3cc(Cl)cc(-c4ccnc5cc(CN6C(=O)CCC6=O)sc45)c3O1)CNCC2 |
